One data set relates to rat aorta. Nature of the data set: Spasmolytic effect in isolated rat aorta. The class given is cell-based, male SD rat. The note with it: 20 mM KCl contraction, 37° C., maximal inhibition with papaverine hydrochloride 10^-4 M = 100, mean value±standard error, n = 3, read-out: -log IC50 (spasmolytic effect on rat aorta contracted with 20 mM KCl) (converted). As to the method:
(§1) 1. Spasmolytic effect in isolated rat aorta and dog coronary artery
The thoracic aorta of male SD rat was isolated and cut into 3 mm wide ring preparations. Each preparation was mounted in a 10 ml organ bath filled with Krebs-Henseleit solution by applying a resting tension of 1.0 g. The nutrient solution was maintained at 37° C. and aerated with a 95% O2 /5% CO2 gas. The isometric tension of the preparation was measured with a FD pickup and recorded on a recorder.
(§2) After about one hour of equilibration time, a compound of this invention was cumulatively administered to the preparation contracted with 20 mM KCl, and its spasmolytic effect was examined. The spasmolytic action of the compound of this invention was expressed as percentage of inhibition, taking the maximal inhibition obtained with papavarine hydrochloride (10^-4 M) as 100. The IC50 value (50% inhibition) for the compound of this invention was determined from the concentration-response curve fitted by non-linear regressions with a personal computer, and its potency expressed in terms of -log IC50 was shown as [mean value±standard error].

The next data set concerns guinea-pig trachea. Nature of the data set: Bronchodilator effect in isolated tracheal smooth muscle (guinea-pig trachea, leukotriene D4 contraction). The class given is cell-based, Hartley male guinea-pigs. As to the method: 2. Bronchodilator effect in isolated tracheal smooth muscle
Hartley male guinea-pigs (NISSEIKEN) were stunned by a blow to the head and their tracheas were removed. Each trachea was carefully made into 20 small pieces so as not to injure them, and five pieces of them were linked together with a yarn to prepare tracheal strip chain. The preparation was suspended in 15 ml of an organ bath filled with a modified Krebs-Henseleitsolution containing indomethacin (b 5×10^-6 M) by applying a tension of 0.5 g. The solution was maintained at 35° C. and aerated with a 95% O2 /5% CO2 gas. After an equilibration time of one hour, the experiment was carried out. The results were isometrically recorded on a Multipen Recorder (R-64VL, mfd. by Rika Denki Kogyo) through a transducer (TD-112S, mfd. by Nihon Kohden) and an input box (JD-112S, mfd. by Nihon Kohden).
Each preparation was made to attain the maximal contraction with carbachol (3×10^-6 and 10^-5 M) and washed. When it reached an equilibrium, it was exposed to L-cysteine as an aminopeptidase inhibitor (3×10^-3 M). After thirty minutes, a contractive reaction was made to take place with leukotriene D4 (3×10^-9 M). When the contraction had reached a constant value, a test drug (10^-8 to 3×10^-5 M) was cumulatively applied into the bath at a dose ratio of 3. Finally, the maximal relaxation of each preparation was confirmed with papaverine.
The relaxations given by each test drug at various concentrations were converted to percentages of relaxation, taking the maximal relaxation obtained with papaverine as 100. The maximal relaxation (%) of each test drug and -log of ED30 (M) which is the dose of each test drug giving a percentage of relaxation of 30% as determined by a linear regression method from percentages of relaxation at two different doses are shown below.

A further data set relates to dog coronary artery. Briefly: Spasmolytic effect in isolated dog coronary artery. The format is cell-based, mongrel dogs. The note with it: for spasmolytic effect on a contraction caused by 80 mM KCl (in words): potencies compared with 20 mM KCl; for IC50: Canis lupus familiaris, mean value±standard error. As to the method: as §1, §2
Ring preparations of coronary artery from mongrel dogs of either sex were prepared and isometric tension of the preparation was measured by the same method as above, except that the resting tension was adjusted to 1.5 g. For estimating the mechanism of action, the effect on the contraction caused by 80 mM KCl was also studied.

Data set [1] is described as follows: Acute toxicity in mice (up and down method). As to conditions: mouse, in vivo, iv. As to the method: Acute toxicity of the test drug was evaluated in mice, following intravenous administration. The LD50 of the test drug was determined using up and down method.
Setting [2] is: 20 mM KCl contraction, n = 3 (n = 4 for Compound No. 81), read-out: -log IC50 (spasmolytic effect on dog coronary artery, 20 mM KCl) (converted).
Where [3] appears, read: 80 mM KCl contraction, n = 3, read-out: -log IC50 (spasmolytic effect on dog coronary artery, 80 mM KCl) (converted).

The term IC50 denotes the concentration needed to halve the response being measured. Usually LD50 stands for the dose at which mortality reaches 50%. Low readings indicate a more toxic substance, high ones a less toxic substance.

Where two headings read alike, the source gives them in different places.

For `CC1(C)Oc2ccc(C#N)cc2[C@@H](n2ccc(CO[N+](=O)[O-])cc2=O)[C@@H]1O` (relative stereo) [Compound No. 2, trans-3-hydroxy-6-cyano-3,4-dihydro-2,2-dimethyl-4-(1,2-dihydro-2-oxo-4-nitroxymethyl-1-pyridinyl)-2H-benzo[b]pyran], in the data set with rat aorta, the IC50 is 51.3 nM.

On to `CC(=O)O[C@H]1[C@H](n2ccc(CO[N+](=O)[O-])cc2=O)c2cc(C#N)ccc2OC1(C)C` (relative stereo) [Compound No. 44, trans-3-acetoxy-6-cyano-3,4-dihydro-2,2-dimethyl-4-(1,2-dihydro-2-oxo-4-nitroxymethyl-1-pyridinyl)-2H-benzo[b]pyran], for which the IC50 with rat aorta was 6610 nM.

For `CC1(C)C=C(n2ccc(CO[N+](=O)[O-])cc2=O)c2cc(C#N)ccc2O1` [Compound No. 69, 6-cyano-2,2-dimethyl-4-(1,2-dihydro-2-oxo-4-nitroxymethyl-1-pyridinyl)-2H-benzo[b]pyran], in the data set with guinea-pig trachea (Cavia porcellus, leukotriene D4 (3×10^-9 M), dose giving 30% relaxation, papaverine maximal relaxation = 100, value is a negative log, read-out: Relaxing action on the contraction caused by leukotriene D4: -log[EX30 (M)] (converted)), the EC30 is 2.24e-07 M. For the same compound, the Emax with guinea-pig trachea (Cavia porcellus, leukotriene D4 (3×10^-9 M), test drug 10^-8 to 3×10^-5 M cumulatively, papaverine maximal relaxation = 100, read-out: Relaxing action on the contraction caused by leukotriene D4: Maximal relaxation %) worked out at 93.9%. Besides, the “relaxant effect on isolated guinea pig tracheal smooth muscle contracted by leukotriene D4 / bronchodilator activity (in words)” value in the data set on guinea-pig trachea (leukotriene D4) was “strong relaxant effect”. The “spasmolytic effect on a contraction caused by 80 mM KCl (in words)” value (“spasmolytic effect” below) in the data set on dog coronary artery is reported as “also exhibited a spasmolytic effect on a contraction caused by 80 mM KCl, though their potencies are lower than those against the contraction caused by 20 mM KCl”. Also, the results for the IC50 with dog coronary artery (setting [2]), with dog coronary artery (setting [3]) and with rat aorta were 8.71 nM, 12600 nM and 3.31 nM, respectively. In data set [1], this compound returned a 50% lethal dose (LD50) of 81.2 mg/kg.

In the case of `CC1(C)C=C(n2cc(CO[N+](=O)[O-])ccc2=O)c2cc(C#N)ccc2O1` [Compound No. 70, 6-cyano-2,2-dimethyl-4-(1,2-dihydro-2-oxo-5-nitroxymethyl-1-pyridinyl)-2H-benzo[b]pyran], in the data set with rat aorta, the IC50 is 135 nM.

For `CC(O[N+](=O)[O-])c1ccn(C2=CC(C)(C)Oc3ccc(C#N)cc32)c(=O)c1` (centres unmarked) [Compound No. 72, 6-cyano-2,2-dimethyl-4-{1,2-dihydro-2-oxo-4-(1-nitroxyethyl)-1-pyridinyl}-2H-benzo[b]pyran], the half-inhibitory concentration (IC50) with rat aorta is 67.6 nM.

As for `CC1(C)C=C(n2ccc(CCCO[N+](=O)[O-])cc2=O)c2cc(C#N)ccc2O1` [Compound No. 77, 6-cyano-2,2-dimethyl-4-{1,2-dihydro-2-oxo-4-(3-nitroxypropyl)-1-pyridinyl}-2H-benzo[b]pyran], the “spasmolytic effect” value in the data set on dog coronary artery is “also exhibited a spasmolytic effect on a contraction caused by 80 mM KCl, though their potencies are lower than those against the contraction caused by 20 mM KCl”. Also, the half-inhibitory concentration (IC50) with dog coronary artery (setting [2]) was 2.14 nM; with dog coronary artery (setting [3]) it was 380 nM; in the data set on rat aorta it was 12.6 nM.

Regarding `CC1(C)C=C(n2ccc(CCCCO[N+](=O)[O-])cc2=O)c2cc(C#N)ccc2O1` [Compound No. 81, 6-cyano-2,2-dimethyl-4-{1,2-dihydro-2-oxo-4-(4-nitroxybutyl)-1-pyridinyl}-2H-benzo[b]pyran], the “spasmolytic effect” value with dog coronary artery is listed as “also exhibited a spasmolytic effect on a contraction caused by 80 mM KCl, though their potencies are lower than those against the contraction caused by 20 mM KCl”. Also, the concentration for half-maximal inhibition (IC50) with dog coronary artery (setting [2]) is 0.0316 nM; in the data set with dog coronary artery (setting [3]), 229 nM; in the data set on rat aorta it was 39.8 nM.

Turning to `CC1(C)C=C(n2ccc(C(CCO[N+](=O)[O-])O[N+](=O)[O-])cc2=O)c2cc(C#N)ccc2O1` (centres unmarked) [Compound No. 91, 6-cyano-2,2-dimethyl-4-{1,2-dihydro-2-oxo-4-(1,3-dinitroxypropyl)-1-pyridinyl}-2H-benzo[b]pyran], in the data set on rat aorta, the IC50 is 102 nM.

Regarding `CC1(C)C=C(n2ccc(CO[N+](=O)[O-])cc2=O)c2cc(C(F)(F)F)ccc2O1` [Compound No. 105, 6-trifluoromethyl-2,2-dimethyl-4-(1,2-dihydro-2-oxo-4-nitroxymethyl-1-pyridinyl)-2H-benzo[b]pyran], the half-maximal inhibitory concentration (IC50) with rat aorta was 5.89 nM.

Regarding `CC1(C)C=C(n2cccc(CO)c2=O)c2cc(C#N)ccc2O1` [Compound No. 160, 6-cyano-2,2-dimethyl-4-(1,2-dihydro-2-oxo-3-hydroxymethyl-1-pyridinyl)-2H-benzo[b]pyran], in the data set with rat aorta, the half-inhibitory concentration (IC50) is 813 nM.

With `CC1(C)C=C(n2ccc(CO)cc2=O)c2cc(C#N)ccc2O1` [Compound No. 161, 6-cyano-2,2-dimethyl-4-(1,2-dihydro-2-oxo-4-hydroxymethyl-1-pyridinyl)-2H-benzo[b]pyran], the IC50 in the data set on rat aorta was 525 nM.

Regarding `CC1(C)C=C(n2cc(CO)ccc2=O)c2cc(C#N)ccc2O1` [Compound No. 162, 6-cyano-2,2-dimethyl-4-(1,2-dihydro-2-oxo-5-hydroxymethyl-1-pyridinyl)-2H-benzo[b]pyran], the IC50 in the data set on rat aorta is 138 nM.

For the compound `C=Cc1ccn(C2=CC(C)(C)Oc3ccc(C#N)cc32)c(=O)c1` [Compound No. 190, 6-cyano-2,2-dimethyl-4-(1,2-dihydro-2-oxo-4-vinyl-1-pyridinyl)-2H-benzo[b]pyran], in the data set on rat aorta, the IC50 is 60.3 nM.

With `CC1(C)C=C(n2ccc(C=O)cc2=O)c2cc(C#N)ccc2O1` [Compound No. 191, 6-cyano-2,2-dimethyl-4-(1,2-dihydro-2-oxo-4-formyl-1-pyridinyl)-2H-benzo[b]pyran], the IC50 in the data set with rat aorta is 447 nM.

Regarding `CC1(C)C=C(n2ccc(CCCO)cc2=O)c2cc(C#N)ccc2O1` [Compound No. 192, 6-cyano-2,2-dimethyl-4-(1,2-dihydro-2-oxo-4-(3-hydroxypropyl)-1-pyridinyl}-2H-benzo[b]pyran], the IC50 in the data set on rat aorta was 1120 nM.

In the case of `CC1(C)C=C(n2ccc(CCCCO)cc2=O)c2cc(C#N)ccc2O1` [Compound No. 193, 6-cyano-2,2-dimethyl-4-{1,2-dihydro-2-oxo-4-(4-hydroxybutyl)-1-pyridinyl}-2H-benzo[b]pyran], the half-inhibitory concentration (IC50) with rat aorta is 1350 nM.

Source of the values: patent US5296492A, “Certain chroman derivatives useful for treating symptoms caused by contraction of smooth muscles, circulatory diseases or epilepsy” (Nippon Kayaku Kabushiki Kaisha, priority 1991, dated 1994).
